Experimental findings from ChEMBL document CHEMBL5046233, “Nitroxoline and its derivatives are potent inhibitors of metallo-β-lactamases” (Eur J Med Chem, 2022) are described below.

Some results are limits rather than exact numbers.

Experiment [1] is described as follows: Inhibition of recombinant NDM-1 (unknown origin) using fluorocillin as substrate at 10 uM incubated for 30 mins by fluorescence based assay. The note with it: Bacteria.
Experiment [2] is described as follows: Inhibition of recombinant NDM-1 (unknown origin) using fluorocillin as substrate at 30 uM incubated for 30 mins by fluorescence based assay. The note with it: Bacteria.
Experiment [3] in a line: Inhibition of recombinant NDM-1 (unknown origin) using fluorocillin as substrate at 3 uM incubated for 30 mins by fluorescence based assay. The following applies: Bacteria.
The test system of experiment [4] is Bacteria. Description: Inhibition of recombinant IMP-1 (unknown origin) using fluorocillin as substrate at 3 uM incubated for 30 mins by fluorescence based assay.
Experiment [5] has as its system Bacteria. In words: Inhibition of recombinant VIM-1 (unknown origin) using fluorocillin as substrate at 3 uM incubated for 30 mins by fluorescence based assay.
The subject of experiment [6] is Bacteria. Description: Inhibition of recombinant VIM-1 (unknown origin) using fluorocillin as substrate at 10 uM incubated for 30 mins by fluorescence based assay.
The test system of experiment [7] is Bacteria. Description: Inhibition of recombinant IMP-1 (unknown origin) using fluorocillin as substrate at 10 uM incubated for 30 mins by fluorescence based assay.
Experiment [8] concerns Bacteria. Description: Inhibition of recombinant VIM-1 (unknown origin) using fluorocillin as substrate at 30 uM incubated for 30 mins by fluorescence based assay.
Experiment [9] deals with Bacteria. Description: Inhibition of recombinant IMP-1 (unknown origin) using fluorocillin as substrate at 30 uM incubated for 30 mins by fluorescence based assay.

As usually defined, the inhibition is the relative decrease from the control value, in per cent.

Regarding `N#CCNC(=O)c1ccc2cccc(O)c2n1`, the inhibition in experiment [1], in experiment [2] and in experiment [3] was below 20% throughout.
With `CN(CC#N)C(=O)c1ccc2cccc(O)c2n1`, the inhibition in experiment [1], in [2] and in experiment [3] was below 20% throughout.
For the molecule `CN(CC#N)C(=O)c1ccc2c([N+](=O)[O-])cc([N+](=O)[O-])c(O)c2n1`, the inhibition in experiment [1], in experiment [2] and in experiment [3] was below 20% each time.
With `N#Cc1ccc2ccc([N+](=O)[O-])c(O)c2n1`, the inhibition in [1], in [2] and in [3] was below 20% in each case.
Turning to `Oc1ccc(F)c2cccnc12`, the inhibition in experiment [1], in experiment [2] and in experiment [3] was below 20% throughout.
For the molecule `O=C(O)c1ccc([N+](=O)[O-])c2cccnc12`, the inhibition in experiment [1], in [2] and in experiment [3] was below 20% throughout.
Consider `O=C(O)CN(CCN(CC(=O)O)CC(=O)O)CC(=O)O`, for which the values for the inhibition in experiment [1], in [2] and in experiment [3] were 87%, 87% and 84%, respectively.
As to `Nc1c([N+](=O)[O-])cc([N+](=O)[O-])c2cccnc12`, the inhibition in [1], in experiment [2] and in [3] was below 20% in each case.
In the case of `Cc1ccc2c([N+](=O)[O-])ccc(O)c2n1`, the values for the inhibition in experiment [1], in [2] and in [3] were below 20%, 35% and below 20%, respectively.
Regarding `CN(C)Cc1ccc2c([N+](=O)[O-])ccc(O)c2n1`, the inhibition in experiment [1], in experiment [2] and in experiment [3] was below 20% each time.
Turning to `O=C(O)c1cc([N+](=O)[O-])c2cccnc2c1O`, the inhibition in experiment [1], in [2] and in [3] was below 20% in each case.
As for `O=C(O)c1cc(O)c2ncccc2c1`, the inhibition in [1], in experiment [2] and in [3] was below 20% each time.
As to `N#Cc1ccc2c([N+](=O)[O-])cc([N+](=O)[O-])c(O)c2n1`, the inhibition in experiment [1], in [2] and in experiment [3] was below 20% each time.
Take `Cc1ccc2cccc(O)c2n1`: the inhibition in [1], in experiment [2] and in experiment [3] was below 20% in each case.
For `N#CCOc1ccc([N+](=O)[O-])c2cccnc12`, the inhibition in experiment [1], in experiment [2] and in experiment [3] was below 20% in each case.
For the molecule `O=[N+]([O-])c1ccc(O)c2ccccc12`, the inhibition in [1], in experiment [2] and in experiment [3] was below 20% each time.
As for `CN(C)Cc1ccc2c(Cl)cc(Cl)c(O)c2n1`, the results for the inhibition in experiment [1], in experiment [2] and in experiment [3] were below 20%, 69% and below 20%, respectively.
Take `Nc1ccc2cccc(O)c2n1`: the inhibition in [1], in [2] and in [3] was below 20% in each case.
In the case of `Cc1ccc2c([N+](=O)[O-])cc([N+](=O)[O-])c(O)c2n1`, the inhibition in experiment [1], in experiment [2] and in experiment [3] was below 20% each time.
As to `O=C(O)c1ccc2cccc(O)c2n1`, the inhibition in the experiment with Bacteria [4] was 27%; with Bacteria [5], 32%; in experiment [1], 97%; with Bacteria [6], 54%; in the experiment on Bacteria [7], 72%; in the experiment on Bacteria [8], 91%. For the same molecule, the inhibition in experiment [2] worked out at 100%; in experiment [3], 24%; with Bacteria [9], 95%.
As for `O=C(O)C[C@H](NCCN[C@@H](CC(=O)O)C(=O)O)C(=O)O`, the inhibition in experiment [1] stood at 84%; in [2] it was 86%; in experiment [3] it was 84%.
For `N#CCN(Cc1ccccc1)C(=O)c1ccc2cccc(O)c2n1`, the inhibition in experiment [1], in [2] and in experiment [3] was below 20% in each case.
For the molecule `CCNCc1cc([N+](=O)[O-])c2cccnc2c1O`, the inhibition in the experiment on Bacteria [4] was below 20%; in the experiment on Bacteria [5], below 20%; in experiment [1] it was 40%; with Bacteria [6] it was 53%; with Bacteria [7], 53%; in the experiment on Bacteria [8], 98%. For the same molecule, the inhibition in experiment [2] is 88%; in experiment [3], below 20%; with Bacteria [9] it was 92%.
Turning to `CN(CC#N)C(=O)c1ccc2c([N+](=O)[O-])ccc(O)c2n1`, the inhibition in experiment [1], in [2] and in experiment [3] was below 20% throughout.
Turning to `O=[N+]([O-])c1cc(CNCc2ccccc2)c(O)c2ncccc12`, the results for the inhibition in experiment [1], in experiment [2] and in experiment [3] were 23%, 76% and below 20%, respectively.
Take `N#CCNCc1cc([N+](=O)[O-])c2cccnc2c1O`: the inhibition turned out to be 43% with Bacteria [4]; 95% with Bacteria [5]; 89% in experiment [1]; 99% with Bacteria [6]; 91% in the experiment on Bacteria [7]; 99% in the experiment with Bacteria [8]. Moreover, the values for the inhibition (in experiment [2]; in experiment [3]; with Bacteria [9]) were 98%, 64% and 96%, respectively.
For the molecule `Nc1c(O)cc(S(=O)(=O)O)c2ccccc12`, the inhibition in [1], in experiment [2] and in experiment [3] was below 20% in each case.
As to `N#CC1(NC(=O)c2ccc3c([N+](=O)[O-])ccc(O)c3n2)CC1`, the inhibition in [1], in experiment [2] and in experiment [3] was below 20% throughout.
Turning to `O=C(O)COc1cccc2cccnc12`, the inhibition in [1], in [2] and in experiment [3] was below 20% throughout.
`Oc1ccc(C(F)(F)F)c2cccnc12`: the inhibition in experiment [1] was below 20%; in experiment [2], below 20%; in [3], 13%.
For `Nc1ccc2c([N+](=O)[O-])ccc(O)c2n1`, the inhibition in the experiment with Bacteria [4] was below 20%; in the experiment with Bacteria [5], 20%; in [1], 46%; in the experiment on Bacteria [6], 37%; with Bacteria [7], 38%; in the experiment with Bacteria [8], 72%. Also, the inhibition in experiment [2] is 93%; in experiment [3], below 20%; in the experiment on Bacteria [9], 74%.
In the case of `O=[N+]([O-])c1ccc(N2CCCC2)c2ncccc12`, the inhibition in experiment [1], in experiment [2] and in experiment [3] was below 20% in each case.
As for `O=C(c1cc([N+](=O)[O-])c2cccnc2c1O)N1CCOCC1`, the inhibition in experiment [1] was below 20%; in experiment [2] it was 16%; in experiment [3] it was below 20%.
With `c1cnc2c(c1)ccc1cccnc12`, the inhibition is below 20% in [1], 68% in [2] and below 20% in [3].
For the molecule `Oc1ccc(Cl)c2cccnc12`, the inhibition is below 20% in experiment [1], 60% in [2] and below 20% in [3].
Regarding `N#CCNC(=O)c1ccc2c([N+](=O)[O-])ccc(O)c2n1`, the inhibition in experiment [1], in experiment [2] and in [3] was below 20% each time.
Take `O=[N+]([O-])c1cc(O)c2ncccc2c1`: the values for the inhibition in experiment [1], in experiment [2] and in [3] were below 20%, 95% and below 20%, respectively.
Regarding `Cc1cc(C)c2cccnc2c1O`, the inhibition in [1], in experiment [2] and in experiment [3] was below 20% throughout.
As for `O=S(=O)(O)c1ccc(O)c2ccccc12`, the inhibition in experiment [1], in experiment [2] and in experiment [3] was below 20% throughout.
For `CC(=O)Nc1ccc([N+](=O)[O-])c2cccnc12`, the inhibition in experiment [1], in experiment [2] and in experiment [3] was below 20% in each case.
For the molecule `CN(CC#N)Cc1cc([N+](=O)[O-])c2cccnc2c1O`, the inhibition in experiment [1] was below 20%; in experiment [2] it was 82%; in [3], below 20%.
Regarding `N#CCN(Cc1ccccc1)C(=O)c1ccc2c([N+](=O)[O-])ccc(O)c2n1`, the inhibition in experiment [1], in experiment [2] and in [3] was below 20% in each case.
In the case of `O=[N+]([O-])c1cc([N+](=O)[O-])c2cccnc2c1O`, the inhibition in experiment [1], in experiment [2] and in experiment [3] was below 20% each time.
For the molecule `O=C(O)c1ccc(O)c2ncccc12`, the inhibition is below 20% in experiment [1], 39% in [2] and below 20% in experiment [3].
As for `Oc1ccc2cccc(O)c2n1`, the inhibition in [1], in [2] and in experiment [3] was below 20% in each case.
For the molecule `N#CCN(Cc1ccccc1)C(=O)c1ccc2c([N+](=O)[O-])cc([N+](=O)[O-])c(O)c2n1`, the inhibition in experiment [1], in experiment [2] and in experiment [3] was below 20% throughout.
`N#CC1(NC(=O)c2cc([N+](=O)[O-])c3cccnc3c2O)CC1`: the inhibition in experiment [1], in [2] and in [3] was below 20% in each case.
With `N#Cc1ccc2cccc(O)c2n1`, the inhibition in experiment [1], in experiment [2] and in experiment [3] was below 20% each time.
Regarding `O=S(=O)(O)c1ccc(O)c2ncccc12`, the inhibition was below 20% in experiment [1], 67% in experiment [2] and below 20% in experiment [3].
Take `NC(=O)c1ccc([N+](=O)[O-])c2cccnc12`: the inhibition in experiment [1], in experiment [2] and in [3] was below 20% in each case.
